The values that follow come from patent US8476240B2, “Histidine related compounds for identifying and blocking amyloid beta ion channels” (priority 2008, dated 2013).

“Also recorded” adds a separate entry of the source. Where two headings read alike, the source gives them in different places. Residues, ends and D or L forms follow the SMILES beside them.

In one data set the test system is Aβ channel. The data set is described as follows: Aβ channels incorporated into planar lipid bilayers, ionic current recording. The settings on record: for blocking of the flow of ionic charges conducted by Aβ channels: His 41.5 μM, NAHIS compounds 16.6 μM (FIG. 5B); for blocking of Aβ channel current activity / reversibility of Aβ channel blockage after washing the chamber: planar lipid bilayer; for blocking of Aβ channel current activity: zero membrane potential; for time to reduce the flow of ionic charges through the membrane by 50%: 16.6 μM; for reversibility of Aβ channel blockage after washing the chamber: after washing off the blocker; for time to block the flow of ionic charges through Aβ channels: 41.5 μM (FIG. 5B left plot). The class given is biochemical. Here is the method:
Planar Lipid Bilayer Methodology: A suspension of palmitoyloleoyl phosphatidylserine and palmitoyloleoyl phosphatidylethanolamine, (Avanti, Alabaster, Ala.) 1:1, in η-decane was prepared. This suspension was applied to an orifice of about 100-120 μm in diameter with a Teflon film separating two compartments, 1.2 ml volume each. The ionic solutions in the compartments contained asymmetrical concentrations of CsCl (200cis/50trans mM) and symmetrical 0.5 mM CaCl2 and 5 mM K-HEPES, pH 7. The two ionic compartments were electrically connected to the input of a voltage clamp amplifier. Current was recorded using a patch clamp amplifier and data were stored on computer disk memory. Off-line analysis of the channel activity was carried out using the software package pClamp (Axon Instruments, Foster City, Calif.). Incorporation of Aβ peptide into the bilayer was obtained by adding an aliquot of proteoliposome (Aβ-liposome) suspension to the solution in the cis side of the planar lipid bilayer chamber and stirring.
Preparation of Proteoliposomes: Liposomes were prepared by hydration of air-dried palmitoyloleoyl phosphatidylserine (10 mg) with 1 M potassium aspartate, pH 7.0 (1 ml), followed by water sonication for 5 min. The liposome suspension (50 μl) was mixed with a stock aqueous solution of Aβ peptide (1 mg/ml, obtained from Bachem, Torrance, Calif. and from AnaSpec, San Jose, Calif.), followed by sonication.
Based on the theoretical model proposed by Durell et al. (1994), the predicted pore region of the Aβ channel is made of the hydrophilic structure composed of residues 1-16. The structure formed by a radial polymer of four to six Aβ subunits predicts that rings of His residues surround and form the path for the ions passing through the pore. […] This interaction will block the entrance to the Aβ pore, and consequently affect the flow of current through the Aβ channel. Therefore, various compounds of known His coordinating capacity were studied for their interaction with Aβ channels incorporated into planar lipid bilayers. No membrane potential difference was applied to the lipid bilayers, to avoid any disturbing effect the membrane potential may have on the channel activity and in the conformations of the channel.
Here the effectiveness of the His-coordinating and His-related compounds was studied in terms of the time required to block the Aβ channel currents. […] When Aβ channels are incorporated into artificial membranes, they form multi-conductance systems. This is manifested by frequently fluctuating conductance between specific levels. […] The results were analyzed by an alternative procedure that quantifies the total ionic current flowing through the Aβ channel incorporated into the artificial lipid membrane at any given time. For this purpose, we integrated the total ionic current flowing through the membrane and averaged the amount of charge conducted in consecutive time intervals of 8 msec duration.
Planar Lipid Bilayer Methodology and Preparation of Proteoliposomes: The experiments were performed as described previously except that the suspension of palmitoyloleoyl phosphatidylserine and palmitoyloleoyl phosphatidylethanolamine was applied to an orifice of about 80-100 μm in diameter with a Teflon film separating two compartments. In addition, the liposome suspension (50 μl) was mixed with a stock aqueous solution of Aβ40 (1 mg/ml; obtained from Invitrogen, Carlsbad, Calif.).

Data set [1] deals with PC12 cells. The data set is described as follows: Protection of PC12 cells from Aβ cytotoxicity (LDH release / cell viability assay). The class given is cell-based. As to the method:
Previous studies have shown that the native peptide fragments from the Aβ polypeptide, NA4 (SEQ ID NO: 3) and NA7 (SEQ ID NO: 4), are able to block Aβ channel activity and protect cells from Aβ cytotoxicity. […] The concentration required for 50% protection (half maximal effective concentration, EC50) for NAHIS04 was less than 1 μM (Panel B). It was also between 2-3 times less than the EC50 for either NA4 or NA7.
A general note: Release of lactate dehydrogenase indicates damage to the cell membrane.

The subject of data set [2] is PC12 cells, cortical and hippocampal neurons. Put plainly: cells. The settings on record: for concentration required for 50% protection (EC50): three different types of cells, three days; for concentration required for 50% protection (EC50) / protection of cells from Aβ cytotoxicity: Aβ peptide 5 μM; for protection of cells from Aβ cytotoxicity: three days of incubation, XTT and LDH, three cell types. Here is the method: Cell culture: PC 12 cells, derived from a transplantable rat pheochromocytoma (ATCC # CRL 1721), were cultured in the recommended ATCC medium. Primary cultures of hippocampal and cortical neurons from […] rat brains were grown in neurobasal medium/B27 (GIBCO). For neurons preparation, pregnant rats were anesthetized and killed to extract the fetuses. For pain alleviation, the animals were anesthetized following recommendations in the 2000 Report of the American Veterinary Medical Association Panel on Euthanasia. Brains from the fetuses were dissected out and neuronal cell cultures prepared as in a previously described protocol (Simakova and Arispe, 2006).
Cell viability assays: The percentage of cells protected from Aβ-induced cell death by various treatments was evaluated by means of a colorimetric XTT assay (Cell Proliferation Kit II, Roche, Mannheim, Germany). The cytotoxicity was also directly measured by the release of lactate dehydrogenase (LDH) from the cytosol into the media (Cytotoxicity Detection Kit (LDH), Roche, Mannheim, Germany).
Cell viability was examined using two different assays. These were the colorimetric XTT assay that quantifies metabolically active cells, and an assay that measures the release of lactate dehydrogenase (LDH) from the cytosol into the media, which evaluates the cell membrane integrity. […] The left panels (A, C and E) show the results from the XTT assay expressed as a percentage of cytotoxicity, and the right panels (B, D and F) show the results from the measurements of LDH released from cells into the media expressed as a percentage of protection of cells.
(In general: Formazan colour is commonly taken as a measure of viable cells.)

For data set [3], the system named is PC12 cells. Put plainly: Aβ-induced intracellular free calcium change in FURA-2AM loaded PC12 cells. The class given is cell-based, rat. The settings on record: Aβ 7.66 μM; for block of Aβ-induced intracellular calcium increase: compound 16.66 μM, 15 minute time course. As to the method: Intracellular Free Calcium measurements: Cells were plated on glass cover slips coated with poly-L-lysine and loaded with 2 μM FURA-2AM (Molecular Probes) calcium sensitive probe in incubation buffer (135 mM NaCl, 5 mM KCl, 2.5 mM CaCl2, 1.2 mM MgCl2, 10 mM glucose, 10 mM Hepes, pH 7.4). After 30 min of loading period, cells were treated with Aβ (7.66 μM). The time course of changes in the emission from FURA-2AM was observed using an inverted epi-fluorescence/phase contrast microscope equipped with a low-light level integrating CCD camera+microphotometer assembly (InCy I/P-2 Imaging & Photometry System, Intracellular Imaging INC.)
A 15 minute time course experiment was performed of the intracellular free calcium change in six FURA-2AM loaded PC 12 cells before and after the addition of Aβ (7.66 μM) and Aβ+His-related compound (16.66 μM).
Experiments in this Example were performed to determine if there was concentration dependence blockage of the Aβ-induced intracellular calcium response by NAHIS04. A time course of the intracellular free calcium change was taken in FURA-2AM loaded PC12 cells before and after the addition of Aβ (7.66 μM) to media containing different concentrations of NAHIS04. FIG. 11 illustrates that the concentration of the Aβ channel blocker is important and that the most efficient concentration of NAHIS04 for the blockage occurred at >5 μM.
(In general: A change in cytosolic calcium serves as a functional read-out for many receptors and channels.)

Take `N[C@@H](Cc1c[nH]cn1)C(=O)O` [His, L-histidine, reference compound]: in the data set with Aβ channel, the “blocking of the flow of ionic charges conducted by Aβ channels” value (shortened to “blocking of the flow … by Aβ channels”) is recorded as “very slow-acting or had almost no channel-blocking capacity”; the “blocking of Aβ channel current activity” value is “only affect the current peaks of 5.8 and 4.2 pA; also recorded: mildly reduces the Aβ channel activity”.

Regarding `CC(C)[C@H](NC(=O)[C@H](CCC(=O)O)NC(=O)[C@H](Cc1ccc(O)cc1)NC(=O)CNC(=O)[C@@H](N)CO)C(=O)N[C@@H](Cc1c[nH]cn1)C(=O)N[C@@H](Cc1c[nH]cn1)C(=O)O` [NA4, SGYEVHH, reference compound] (H-SGYEVHH-OH), the “protection of PC12 cells from Aβ cytotoxicity” value in the data set with PC12 cells [1] (Example 5, LDH release, three days) is “not as effective at blocking the Aβ channel as NAHIS04”.

`CC(=O)N[C@@H](CO)C(=O)NCC(=O)N[C@@H](Cc1ccc(O)cc1)C(=O)N[C@@H](CCC(=O)O)C(=O)N[C@H](C(=O)N[C@@H](Cc1c[nH]cn1)C(=O)N[C@@H](Cc1c[nH]cn1)C(N)=O)C(C)C` [NA4mod, Ac-SGYEVHH-CONH2] (Ac-SGYEVHH-NH2): the “percent protection of PC12 cells from Aβ cytotoxicity” value in the data set with PC12 cells [1] (Example 9, cell viability assay (FIG. 13)) is listed as “percent protection is similar to the protection shown by NAHIS04”.

On to `CC(=O)N[C@@H](Cc1c[nH]cn1)C(N)=O` [NAHIS01, Ac-His-CONH2], for which, in the data set with Aβ channel, the “blocking of the flow … by Aβ channels” value is “does not fully prevent the flow of ionic charges” and the “blocking of Aβ channel current activity” value is “more effective at reducing all current peaks at much lower concentrations than unmodified His; also recorded: did not operate as a full channel blocker; also recorded: very efficient at blocking the Aβ ion channel”.

For `CC(=O)N[C@@H](Cc1c[nH]cn1)C(=O)N[C@@H](Cc1c[nH]cn1)C(N)=O` [NAHIS02, Ac-His-His-CONH2], the “concentration required for 50% protection (EC50)” value in data set [2] is “below the micromolar levels”. Further, in the data set on Aβ channel, the “time to reduce the flow of ionic charges through the membrane by 50%” value came out at 125 s, the “reversibility of Aβ channel blockage after washing the chamber” value (“reversibility of Aβ channel blockage” for short) is “reversed; also recorded: some recovery of channel activity” and the “blocking of Aβ channel current activity” value is “efficiently block the multiple conductances”. For the same compound, in the data set on Aβ channel (16.66 μM), the “effect on Aβ channel current peaks” value is “removed all current peaks”, the “time to reduce the Aβ channel activity to occasional channel openings” value is recorded as “several minutes” and the “time to totally block the Aβ channel activity” value is listed as “less than three”. The “block of Aβ-induced intracellular calcium increase” value in the data set with PC12 cells [3] is reported as “has the capacity to block Aβ-induced intracellular calcium increase”.

With `CC(=O)N[C@@H](Cc1cncn1C)C(=O)N[C@@H](Cc1cncn1C)C(N)=O` [NAHIS02-(π-Met), Ac-His-π-Met-His-π-Met-CONH2], the “protection of PC12 cells against Aβ” value in the data set on PC12 cells [1] (Example 6, LDH assay, Aβ40 for 24 hrs) is reported as “did not protect the cells against Aβ”. For the same compound, in the data set with Aβ channel, the “blocking of the flow … by Aβ channels” value is given as “showed no blocking capacity” and the “blocking of Aβ channel current activity” value was “did not affect the Aβ channel activity even at a fourfold higher concentration; also recorded: unable to block the Aβ channel activity even at a fourfold higher concentration”. For the same compound, the “block of Aβ-induced intracellular calcium increase” value with PC12 cells [3] is given as “has lost this ability”.

As for `CC(=O)N[C@@H](Cc1c[nH]cn1)C(=O)N[C@@H](Cc1c[nH]cn1)C(=O)N[C@@H](Cc1c[nH]cn1)C(=O)N[C@@H](Cc1c[nH]cn1)C(N)=O` [NAHIS04, Ac-His-His-His-His-CONH2] (Ac-HHHH-NH2), in the data set on PC12 cells [1], the “protection of PC12 cells from Aβ cytotoxicity” value is “showed better protection of the cells”. The EC50 with PC12 cells [1] (PC12 cells, LDH release, three days of incubation, read-out: concentration required for 50% protection (EC50)) was less than 1 µM. Further, in data set [2], the “protection of cells from Aβ cytotoxicity” value was “fully protected the three different types of cells against Aβ” and the “concentration required for 50% protection (EC50)” value is recorded as “below the micromolar levels”. Moreover, in the data set on Aβ channel, the “time to reduce the flow of ionic charges through the membrane by 50%” value was found to be 15 s, the “reversibility of Aβ channel blockage” value is on record as “irreversible; also recorded: stayed fully blocked after the chamber was washed” and the “blocking of Aβ channel current activity” value is “efficiently block the multiple conductances”. In the data set on Aβ channel (16.66 μM), the “effect on Aβ channel current peaks” value was “removed all current peaks” and the “time to reduce the Aβ channel activity to occasional channel openings” value amounted to 20 s. In the data set on Aβ channel (NAHIS04 versus NAHIS02), the “speed of 50% reduction of ionic charge flow compared to NAHIS02” value is “eightfold”. Moreover, the “most efficient concentration for blockage of the Aβ-induced intracellular calcium response” value in the data set with PC12 cells [3] (0.83 to 6.64 μM tested) was greater than 5 µM.

For the compound `[Cl][Ni][Cl]` [Ni^2+, NiCl2, reference compound], the “toxicity of the compound to cells” value in data set [2] (high concentrations) was “cell-dependent toxicity at high concentrations”. In addition, in data set [2], the “protection of cells from Aβ cytotoxicity” value is “fully protect the cells against Aβ cytotoxicity”. Also, in the data set with Aβ channel, the “time to block the flow of ionic charges through Aβ channels” value came out at 120 s, the “reversibility of Aβ channel blockage” value is recorded as “irreversible” and the “blocking of Aβ channel current activity” value is reported as “full block of the channel”. Besides, the “reversibility of Aβ channel blockage” value in the data set with Aβ channel (listed as nickel) is “irreversibly block”.

Take `c1c[nH]cn1` [imidazole, reference compound]: the EC50 in data set [2] (Rattus norvegicus, PC-12, 72 h, read-out: concentration required for 50% protection (EC50)) fell in the range of 2 to 3 µM. Also, in the data set with Aβ channel, the “time to block the flow of ionic charges through Aβ channels” value was 30 s, the “reversibility of Aβ channel blockage” value is “irreversibly block; also recorded: irreversible” and the “blocking of Aβ channel current activity” value was “full block of the channel”.
